14 compounds from patent US20050101595A1, “N-containing cycloalkyl-substituted amino-thiazole derivatives and pharmaceutical compositions for inhibiting cell proliferation and methods for their use” (PFIZER INC., priority 2003, published 2005) can be followed below.

Structures are written as SMILES. Structures can show the parent of a compound that is named as a salt. Where two headings read alike, the source gives them in different places. Where only a bound is given, the exact number is not on record here.

For experiment [1], the system named is HCT-116 cell line. As to the kind of experiment: Inhibition of cell growth, tetrazolium salt (MTT) assay. It is filed as cell-based. The settings on record: for HCT-116 % Inhibition at 0.25 μM: 0.25 μM compound; for IC50: Homo sapiens, HCT-116, 120 h, MTT, three to five days, read-out: HCT-116 IC50. An outline of the steps:
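McCoy's 5A cultures; 4 h pre-incubation; compound dilutions in 0.5% v/v DMSO; 3–5 d, 37° C, 5% CO2; MTT 0.2 mg/mL final, 4 h; formazan dissolved in DMSO, A540; vs 0.5% DMSO vehicle.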

Experiment [2] addresses human CDK4 and genetically truncated (1-264) cyclin D3 (Homo sapiens, UniProt P11802). As to the kind of experiment: Inhibition of CDK4/Cyclin D Retinoblastoma Kinase Activity. The class given is biochemical. The settings on record: for Ki: apparent Ki, CDK4/truncated cyclin D3, Rb fragment substrate, 25 μM ATP. The procedure, abridged: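 Human CDK4/truncated cyclin D3 (1-264) complex from baculovirus-infected insect cells, 5 nM, phosphorylating Rb fragment (residues 386-928, His-tagged) with 25 μM [32/33P]ATP in HEPES pH 7.4, MgCl2, 2% DMSO at 30° C. for 20 min (60 min for tight binders). Filter-captured radioactivity by phosphorimager; apparent Ki from competitive or tight-binding fits.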

Experiment [3] addresses CDK2/Cyclin A (Homo sapiens, UniProt P24941). As to the kind of experiment: Inhibition of CDK2/Cyclin A Retinoblastoma Kinase Activity. The settings on record: for Ki: apparent Ki, CDK2/proteolyzed cyclin A, Rb fragment substrate, 25 μM ATP; for CDK2 % Inhibition At 0.03 μM: Table 2. The class given is biochemical. The procedure, abridged:
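Baculovirus-expressed CDK2 complexed with proteolyzed cyclin A (10 or 19 nM), Rb fragment substrate, 25 μM [32P/33P]ATP, HEPES pH 7.4, 30 °C for 60 or 75 min under initial-rate conditions. Filter capture and phosphorimager readout; apparent Ki fitted to competitive or tight-binding competitive inhibition.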

Setting [4] is: 0.1 μM compound, HCT-116, Table 3.
Setting [5] is: 0.1 μM compound, HCT-116, Table 4.

human CDK4 and genetically truncated (1-264) cyclin D3, sequence (P11802 whole entry, the tested form may be a part): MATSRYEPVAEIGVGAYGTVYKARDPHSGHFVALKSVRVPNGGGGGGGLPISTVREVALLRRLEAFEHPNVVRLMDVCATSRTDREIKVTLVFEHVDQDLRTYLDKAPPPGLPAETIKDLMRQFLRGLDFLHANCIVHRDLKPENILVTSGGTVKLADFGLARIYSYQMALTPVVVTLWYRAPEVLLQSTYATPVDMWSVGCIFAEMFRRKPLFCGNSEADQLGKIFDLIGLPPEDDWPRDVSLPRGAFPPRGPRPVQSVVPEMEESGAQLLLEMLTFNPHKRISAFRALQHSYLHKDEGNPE
human CDK4 and genetically truncated (1-264) cyclin D3, sequence (P30281 1-264 partner): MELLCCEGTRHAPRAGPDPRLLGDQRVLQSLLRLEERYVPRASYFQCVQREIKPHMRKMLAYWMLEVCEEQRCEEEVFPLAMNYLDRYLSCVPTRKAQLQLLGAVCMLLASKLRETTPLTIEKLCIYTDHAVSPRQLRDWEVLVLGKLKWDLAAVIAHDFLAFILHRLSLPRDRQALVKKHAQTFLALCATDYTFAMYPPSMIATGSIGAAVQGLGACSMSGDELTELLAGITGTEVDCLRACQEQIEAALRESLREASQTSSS

As for `CN(C)c1ccc(N=Nc2ccc(S(=O)(=O)N3CCC(Nc4nc(N)c(C(=O)c5c(F)cccc5F)s4)CC3)cc2)cc1` [Example P18], the “HCT-116 % Inhibition at 0.1 μM” value in experiment [1] (setting [4]) is recorded as 20%. In addition, in experiment [1] (HCT-116, Table 3), the “HCT-116 % Inhibition at 0.25 μM” value is 36%. Also, the “CDK4 % Inhibition at 0.03 μM” value in experiment [2] (0.03 μM compound, Table 3) is 6%. Moreover, in experiment [3] (0.03 μM compound, Table 3), the “CDK2 % Inhibition at 0.03 μM” value is on record as −20%.
For `Nc1nc(NC2CCN(C(=O)c3ccncc3)CC2)sc1C(=O)c1c(F)cccc1F` [Example Q81], the “HCT-116 % Inhibition at 0.1 μM” value in experiment [1] (setting [5]) stood at 4%. In experiment [1] (HCT-116, Table 4), the “HCT-116 % Inhibition at 0.25 μM” value is on record as 37%. For the same compound, the “CDK4 % Inhibition at 0.03 μM” value in experiment [2] (0.03 μM compound, Table 4) is listed as 19%. Further, the “CDK2 % Inhibition at 0.03 μM” value in experiment [3] (0.03 μM compound, Table 4) stood at 6%.
Regarding `Nc1nc(NC2CCN(C(=O)c3ccc(C(F)(F)F)cc3C(F)(F)F)CC2)sc1C(=O)c1c(F)cccc1F` [Example R38], the “HCT-116 % Inhibition at 0.1 μM” value in experiment [1] (HCT-116 cells, at 0.1 μM) came out at 0%. The “HCT-116 5 Inhibition at 0.25 μM” value in experiment [1] (HCT-116 cells) stood at 33. The “CDK4 % Inhibition at 0.03 μM” value in experiment [2] (at 0.03 μM) is reported as 35%. The “CDK2 % Inhibition at 0.03 μM” value in experiment [3] (at 0.03 μM) came to 0%.
On to `CN(C)CCS(=O)(=O)N1CCC(Nc2nc(N)c(C(=O)c3c(F)cccc3F)s2)CC1` [Example F26, {4-Amino-2-[1-(2-dimethylamino-ethanesulfonyl)-piperidin-4-ylamino]-thiazol-5-yl}-(2,6-difluoro-phenyl)-methanone], for which the IC50 in experiment [1] (first HCT-116 column (c4)) amounted to 280 nM; in experiment [1] (second HCT-116 column (c5)), 650 nM. Also, the figures for the Ki in experiment [2] and in experiment [3] were 2.2 nM and 15 nM, respectively.
For the compound `CS(=O)(=O)CS(=O)(=O)N1CCC(Nc2nc(N)c(C(=O)c3c(F)cccc3F)s2)CC1` [Example P53], the “HCT-116 % Inhibition at 0.1 μM” value in experiment [1] (setting [4]) came to 21%. Also, the “HCT-116 % Inhibition at 0.25 μM” value in experiment [1] (HCT-116, Table 3) amounted to 27%. In experiment [2] (0.03 μM compound, Table 3), the “CDK4 % Inhibition at 0.03 μM” value turned out to be 16%. Also, in experiment [3] (0.03 μM compound, Table 3), the “CDK2 % Inhibition at 0.03 μM” value is listed as −23%.
With `Nc1nc(NC2CCN(C(=O)c3ccccc3-c3ccccc3)CC2)sc1C(=O)c1c(F)cccc1F` [Example R123], the “HCT-116 % Inhibition at 0.1 μM” value in experiment [1] (HCT-116 cells, at 0.1 μM) was 0%. Further, the “HCT-116 5 Inhibition at 0.25 μM” value in experiment [1] (HCT-116 cells) stood at 38. The “CDK4 % Inhibition at 0.03 μM” value in experiment [2] (at 0.03 μM) turned out to be 39%. Also, the “CDK2 % Inhibition at 0.03 μM” value in experiment [3] (at 0.03 μM) is 5%.
Consider `Cc1cccc(S(=O)(=O)N2CCC(Nc3nc(N)c(C(=O)c4c(F)cccc4F)s3)CC2)c1` [Example P37], for which the “HCT-116 % Inhibition at 0.1 μM” value in experiment [1] (setting [4]) is on record as 0%. In addition, the “HCT-116 % Inhibition at 0.25 μM” value in experiment [1] (HCT-116, Table 3) stood at 27%. For the same compound, in experiment [2] (0.03 μM compound, Table 3), the “CDK4 % Inhibition at 0.03 μM” value came out at 65%. Besides, the “CDK2 % Inhibition at 0.03 μM” value in experiment [3] (0.03 μM compound, Table 3) was 58%.
For `Nc1nc(NC2CCN(S(=O)(=O)c3ccc(OCCN4CCCC4)nc3)CC2)sc1C(=O)c1c(F)cccc1F` [Example H5, 1-(4-Amino-2-{1-[6-(2-pyrrolidin-1-yl-ethoxy)-pyridine-3-sulfonyl]-piperidin-4-ylamino}-thiazol-5-yl)-1-(2,6-difluoro-phenyl)-methanone Trifluoroacetic Acid Salt], the IC50 in experiment [1] (first HCT-116 column (c4)) was 71 nM; in experiment [1] (second HCT-116 column (c5)), over 500 nM. Also, the Ki in experiment [2] was found to be 0.39 nM; in experiment [3], 1.1 nM.
`Nc1nc(NC2CCN(C(=O)Nc3ccc(Oc4ccccc4)cc3)CC2)sc1C(=O)c1c(F)cccc1F` [Example O52]: in experiment [1] (HCT-116, Table 2), the “HCT-116 % Inhibition at 0.25 μM” value is on record as 33%. In experiment [2] (0.03 μM compound, Table 2), the “CDK4 % Inhibition at 0.03 μM” value is 11%. In experiment [3] (0.03 μM compound), the “CDK2 % Inhibition At 0.03 μM” value stood at 24%.
Turning to `Nc1nc(NC2CCN(C(=O)c3cccc(F)c3)CC2)sc1C(=O)c1c(F)cccc1F` [Example R130], the “HCT-116 % Inhibition at 0.1 μM” value in experiment [1] (HCT-116 cells, at 0.1 μM) came to 0%. For the same compound, in experiment [1] (HCT-116 cells), the “HCT-116 5 Inhibition at 0.25 μM” value is listed as 20. The “CDK4 % Inhibition at 0.03 μM” value in experiment [2] (at 0.03 μM) came out at 77%. The “CDK2 % Inhibition at 0.03 μM” value in experiment [3] (at 0.03 μM) is 59%.
As for `COC(=O)[C@H](CC(C)C)NC(=O)N1CCC(Nc2nc(N)c(C(=O)c3c(F)cccc3F)s2)CC1` [Example O77], in experiment [1] (HCT-116, Table 2), the “HCT-116 % Inhibition at 0.25 μM” value is given as 43%. Besides, the “CDK4 % Inhibition at 0.03 μM” value in experiment [2] (0.03 μM compound, Table 2) turned out to be 8%. Also, the “CDK2 % Inhibition At 0.03 μM” value in experiment [3] (0.03 μM compound) is listed as 24%.
Turning to `COC(=O)c1ccc(OC(=O)N2CCC(Nc3nc(N)c(C(=O)c4c(F)cccc4F)s3)CC2)cc1` [Example Q87], in experiment [1] (setting [5]), the “HCT-116 % Inhibition at 0.1 μM” value turned out to be 4%. Also, the “HCT-116 % Inhibition at 0.25 μM” value in experiment [1] (HCT-116, Table 4) amounted to 37%. Besides, the “CDK4 % Inhibition at 0.03 μM” value in experiment [2] (0.03 μM compound, Table 4) is 77%. For the same compound, in experiment [3] (0.03 μM compound, Table 4), the “CDK2 % Inhibition at 0.03 μM” value is on record as 54%.
For `CN1C(=O)c2ccc(NC(=O)N3CCC(Nc4nc(N)c(C(=O)c5c(F)cccc5F)s4)CC3)cc2C1=O` [Example O88], the “HCT-116 % Inhibition at 0.25 μM” value in experiment [1] (HCT-116, Table 2) is 45%. In experiment [2] (0.03 μM compound, Table 2), the “CDK4 % Inhibition at 0.03 μM” value was found to be 12%. The “CDK2 % Inhibition At 0.03 μM” value in experiment [3] (0.03 μM compound) is 31%.
The like results for `Nc1nc(NC2CCN(C(=O)Nc3ccc(-c4ccccc4)cc3)CC2)sc1C(=O)c1c(F)cccc1F` [Example O63] were, in that order, 40%, 4% and 28%.

As usually defined, the IC50 is the midpoint of a concentration-inhibition curve.
